Measured values taken from patent US20020082254A1, “Compounds for treating disorders where a decreased level of plasma FFA is desired” (priority 2000, published 2002).
Where a name gives a salt, the structure may show the parent alone. Read-outs that look alike come from different tables or passages of the source.

Assays:
[1] = target: T1, Hormone-sensitive lipase (HSL) (Homo sapiens, UniProt Q05469); experiment: Hormone-sensitive lipase (HSL) inhibition assay, 3H-labeled triolein or MOME substrate; type: biochemical
T1 sequence (Q05469 1-1076): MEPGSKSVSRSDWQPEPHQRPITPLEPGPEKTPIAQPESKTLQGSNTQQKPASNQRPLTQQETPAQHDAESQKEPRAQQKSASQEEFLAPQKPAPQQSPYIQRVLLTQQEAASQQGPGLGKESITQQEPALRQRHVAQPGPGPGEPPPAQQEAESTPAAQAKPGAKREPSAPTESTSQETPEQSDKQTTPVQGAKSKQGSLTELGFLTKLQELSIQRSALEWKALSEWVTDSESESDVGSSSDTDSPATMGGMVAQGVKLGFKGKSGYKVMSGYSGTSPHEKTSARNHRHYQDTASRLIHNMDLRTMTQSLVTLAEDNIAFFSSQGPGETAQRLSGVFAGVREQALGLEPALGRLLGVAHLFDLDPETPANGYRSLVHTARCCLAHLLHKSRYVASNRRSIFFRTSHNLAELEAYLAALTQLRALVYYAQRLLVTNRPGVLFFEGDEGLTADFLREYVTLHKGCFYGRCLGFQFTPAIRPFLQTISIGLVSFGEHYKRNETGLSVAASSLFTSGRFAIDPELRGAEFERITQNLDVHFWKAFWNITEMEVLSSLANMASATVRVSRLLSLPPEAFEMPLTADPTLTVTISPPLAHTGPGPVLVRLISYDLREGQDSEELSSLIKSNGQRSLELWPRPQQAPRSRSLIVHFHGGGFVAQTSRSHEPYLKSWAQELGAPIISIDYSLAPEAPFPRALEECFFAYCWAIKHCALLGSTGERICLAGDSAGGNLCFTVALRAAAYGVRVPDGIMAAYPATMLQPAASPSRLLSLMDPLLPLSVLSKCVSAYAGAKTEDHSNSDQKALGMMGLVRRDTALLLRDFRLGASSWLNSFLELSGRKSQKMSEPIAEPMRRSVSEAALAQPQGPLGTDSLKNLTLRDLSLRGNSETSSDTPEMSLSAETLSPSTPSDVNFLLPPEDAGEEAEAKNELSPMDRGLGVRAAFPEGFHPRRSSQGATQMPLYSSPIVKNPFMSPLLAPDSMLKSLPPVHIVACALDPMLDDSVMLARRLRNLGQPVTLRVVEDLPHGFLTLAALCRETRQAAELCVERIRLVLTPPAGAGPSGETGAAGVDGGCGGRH
Description: Hormone-sensitive lipase (HSL) [classified as a triacylglycerol lipase, EC 3.1.1.3, in accordance with the Recommendations of the Nomenclature Committee of the International Union of Biochemistry and Molecular Biology (available on the World Wide Web at the following address: http://www.chem.qmw.ac.uk/iubmb/enzyme/)]
Materials. The Hormone-sensitive lipase employed was provided by Dr. Cecilia Holm of Lund University, Sweden, or produced and purified by Novo Nordisk (NN) using the reagents and protocols employed by Dr. Holm. The substrates used are: ^3H-labeled triolein (TO) from Amersham, Buckinghamshire, U.K. cat No. TRA191; 5-20 Ci/mmol dissolved in toluene, triolein (Sigma, Cat. No. T-1740) and mono-oleoyl-2-O-mono-oleylglycerol (MOME) synthesized at (NN) using the protocols provided by Dr. Cecilia Holm, Lund University, Sweden. Phosphatidyl choline (PC) and phosphatidyl inositol (PI) are from Sigma (St Luis Mo., cat. Nos. P-3556 and P-5954, respectively). All other reagents are of commercial grade and obtained from various commercial sources.
Methods. The preparation of the substrates is as follows:
TO: 30 μl PC:PI (20 mg/ml solution of PC:PI 3:1 prepared in chloroform)+128 μl cold TO+15 μl ^3H-TO
MOME: 30 μl PC:PI+100 μl cold MOME+200 μl ^3H-MOME
They are then evaporated under a gentle stream of N2 followed by 20-30 minutes in a Speedvac™ apparatus to ensure the absence of residual solvent.
The samples are prepared as follows:
Samples/controls: 78 μl PED-BSA+20 μl inhibitor (various concentrations)+2 μl HSL (undiluted 0.12 mg/ml). If no inhibitors are being tested, the reaction contains 98 μl PED-BSA+2 μl HSL.
The samples are put on ice and then sonicated as follows:
With TO as substrate, add 2 ml potassium buffer (0.1M potassium phosphate, pH 7) and then sonicate twice for 1 minute, with a 1-minute interval between cycles. Add an additional 1 ml potassium buffer and sonicate 4 times for 30 seconds, with a 30 second interval in between cycles. To finish, add 1 ml BSA 20%-in potassium buffer, mix by inversion and store on ice until use.
With MOME as substrate: add 2 ml potassium buffer and then sonicate twice for 1 minute, with a 1 minute interval between cycles. Add 1.6 ml potassium buffer and sonicate 4 times for 30 seconds, with a 30-second interval between cycles. To finish, add 0.4 ml BSA 20%-buffer, mix by inversion and store on ice until use.
The enzyme reaction is run at 37° C. The substrate mix is added to the various reactions at 10 second intervals, incubated for 30 minutes in a water bath and then stopped with 3.25 ml of a solution containing CH3OH:CHCl3:heptane (10:9:7). After the addition of 1.05 ml potassium buffer pH10.5, the sample is vortexed thoroughly and centrifuged for 20 min at 2000 r.p.m. One ml of the upper phase is added to 10 ml scintillation fluid, and mixed thoroughly by shaking.
The samples are then counted, 5 min per vial, in a scintillation counter.

Lipoprotein lipase (LPL) = target: T2, Lipoprotein lipase (LPL) (Bos taurus, UniProt P11151); experiment: Lipoprotein lipase (LPL) inhibition assay, 3H-triolein/intralipid substrate; type: biochemical; conditions: read-out: LPL inhibition (% inh. at 50 μM)
T2 construct: Dr. Gunilla Olivecrona, Umea University (gift)
T2 sequence (P11151 29-478): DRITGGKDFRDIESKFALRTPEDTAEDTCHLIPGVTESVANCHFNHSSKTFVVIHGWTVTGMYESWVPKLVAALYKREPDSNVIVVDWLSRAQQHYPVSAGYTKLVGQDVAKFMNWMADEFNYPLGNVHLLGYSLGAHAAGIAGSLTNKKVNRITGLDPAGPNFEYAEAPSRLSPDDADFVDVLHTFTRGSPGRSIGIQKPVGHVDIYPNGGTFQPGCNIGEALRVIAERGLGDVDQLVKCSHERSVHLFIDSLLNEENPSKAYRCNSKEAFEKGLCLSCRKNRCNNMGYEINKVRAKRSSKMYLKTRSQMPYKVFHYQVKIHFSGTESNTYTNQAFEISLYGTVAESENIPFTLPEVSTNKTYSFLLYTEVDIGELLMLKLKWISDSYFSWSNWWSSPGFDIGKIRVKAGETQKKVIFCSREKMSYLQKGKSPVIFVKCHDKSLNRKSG
Description: Lipoprotein Lipase (LPL) [Classified as EC 3.1.1.34 in accordance with the Recommendations of the Nomenclature Committee of the International Union of Biochemistry and Molecular Biology (available on the World Wide Web at the following address: http://www.chem.qmw.ac.uk/iubmb/enzyme/)]
Materials. The lipoprotein lipase employed was obtained from Dr. Gunilla Olivecrona of Umea University, Sweden. ^3H-triolein (TO) from Amersham, Buckinghamshire, U.K., cat No. TRA191; 5-20 Ci/mmol dissolved in toluene. Intralipid is from Kabi-Fresenius). Apo CII was obtained from PMSF-treated plasma from overnight fasted rats. All other reagents are of commercial grade and obtained from various commercial sources.
Methods. The preparation of the substrate is as follows:
25 μl of ^3H-Triolein evaporated under a gentle stream of N2 in a 27° C. room in 4 ml chromacol glass followed by the addition of 1 ml 10% intralipid. This is mixed and sonicated on ice for 5 minutes (50% pulse mode). This can be kept for 1 week at 4° C.
100 μl assay medium (0.3M Tris-Cl, 0.2M NaCl, 0.2 mg heparin/ml and 120 mg BSA/ml (fraction V, Sigma no. 3401, pH 8.5))
All mixed in a 13×100 mm glass tube and incubated for at least 5 minutes.
2. Add 5 μl LPL (of a solution containing 500 mU/mg)
Mix and incubate for 30 minutes at 25° C.
3. The reaction is stopped with 3.25 ml of a solution containing Methanol:chloroform:heptan 10:9:7. Add 1.05 ml buffer (100 mM Boric acid, 100 mM potassium carbonate pH 10.5) and mix 10 seconds per vial.
5. Take 1 ml of the upper phase+10 ml scintillation fluid and mix
6. Scintillation count for 5 minutes per vial.

[2] = read-out: HSL inhibition (IC50)

Row | SMILES | IC50 [1, 2] [nM] | inhibition at 50 µM (Lipoprotein lipase (LPL)) [%] | IC50 [1] [nM]
1 | COC(=O)c1ccc(OC(=O)NN2CCc3ccccc3C2)cc1 [Example 4, 4-(3,4-Dihydro-1H-isoquinolin-2-ylcarbamoyloxy)-benzoic Acid Methyl Ester] | 9900 | 20 | 
2 | O=C(NN1CCc2ccccc2C1)Oc1ccc(C2CCCCC2)cc1 [Example 43] | > 10000 | 6 | 
3 | COc1ccc(OC(=O)NN2CCc3ccccc3C2)cc1 [Example 3, (3,4-Dihydro-1H-isoquinolin-2-yl)-carbamic acid 4-methoxy-phenyl Ester] | 360 | 0 | 
4 | O=C(NN1CCc2ccccc2C1)Oc1ccc(OC(F)(F)F)cc1 [Example 40] | 3400 | 1 | 
5 | COc1ccccc1OC(=O)NN1CCc2ccccc2C1 [Example 2, (3,4-Dihydro-1H-isoquinolin-2-yl)-carbamic acid 2-methoxy-phenyl Ester] | 6400 | 2 | 
6 | Nc1ccc(OC(=O)NN2CCc3ccccc3C2)cc1 [Example 18, (3,4-Dihydro-1H-isoquinolin-2-yl)-carbamic Acid 4-amino-phenyl Ester Hydrochloride] | 7700 | 0 | 
7 | O=C(NN1CCc2ccccc2C1)Oc1c(Cl)cccc1Cl [Example 11, (3,4-Dihydro-1H-isoquinolin-2-yl)-carbamic Acid 2.6-dichloro-phenyl Ester] | > 10000 | 7 | 
8 | O=C(NN1CCc2ccccc2C1)Oc1ccc(Cc2ccccc2)cc1 [Example 27] |  | 5 | 90
9 | Cc1cccc(OC(=O)NN2CCc3ccccc3C2)c1 [Example 10, (3,4-Dihydro-1H-isoquinolin-2-yl)-carbamic Acid m-tolyl Ester] | 670 | 5 | 
10 | O=C(NN1CCc2ccccc2C1)Oc1ccc(F)cc1 [Example 7] | 460 | 0 | 
11 | CCC(C)(C)c1ccc(OC(=O)NN2CCc3ccccc3C2)cc1 [Example 31] | > 10000 | 1 | 
12 | CN(C(=O)Oc1ccc(Cl)cc1)N1CCc2ccccc2C1 [Example 21, (3,4-Dihydro-1H-isoquinolin-2-yl)-methyl-carbamic Acid 4-chloro-phenyl Ester] | > 10000 | 5 | 
13 | O=C(NN1CCc2ccccc2C1)Oc1ccccc1Br [Example 14, (3,4-Dihydro-1H-isoquinolin-2-yl)-carbamic Acid 2-bromo-phenyl Ester] | 800 | 7 | 
14 | O=C(NN1CCc2ccccc2C1)Oc1ccc(OCc2ccccc2)cc1 [Example 29] | 2600 | 0 | 
